≈ marks a conversion by molar mass, not a printed value.
Legend:
Type in all cases: functional
Settings in all cases: read-out: ED50 (the source's name)
TE-671 = experiment: Cytotoxicity against human TE671 cells
KB = experiment: Cytotoxicity against human KB cells
[1] = Cytotoxicity against human RPMI cells
A549 = experiment: Cytotoxicity against human A549 cells
HCT-8 = experiment: Cytotoxicity against human HCT8 cells
P388 = experiment: Cytotoxicity against mouse P388 cells

COC(=O)[C@@]12OC[C@]34[C@H](OC(=O)C[C@@H]13)[C@H](OC(=O)C=C(C)C)[C@H]1C(C)=C(O[C@@H]3O[C@H](CO)[C@@H](O)[C@H](O)[C@H]3O)C(=O)C[C@]1(C)[C@H]4[C@@H](O)[C@@H]2O [BRUCEOSIDE C] gave an EC50 (TE-671) of 0.29 µg/mL (≈ 0.425 µM), an EC50 (KB) of less than 0.1 µg/mL and an EC50 [1] of less than 0.1 µg/mL. The EC50 (A549) was 0.44 µg/mL (≈ 0.645 µM), the EC50 (HCT-8) was 4.51 µg/mL (≈ 6.61 µM) and the EC50 (P388) was 5.11 µg/mL (≈ 7.49 µM).
